Data as given in patent publication US10072304B2, “Nuclear localization of Src-family tyrosine kinases is required for growth factor-induced euchromatinization” (National University Corporation Chiba University, priority 2009, dated 2018).
“Also recorded” adds a separate entry of the source.

System: SYF cells
Experiment: Quantitation of chromatin condensation levels (S.D. value of PI intensity per pixel) in SYF cells
Format: cell-based, mouse
Conditions: 3 mM Na3VO4 for 3 h
Protocol: COS-1, HeLa cells (Japanese Collection of Research Bioresources, Osaka), MCF-7 (provided by H. Saya), A431 (provided by M. N. Fukuda), HEK293 (provided by M. Tagawa), HCT116 (provided by T. Tomonaga), and SYF ([37]; provided by M. Okada and S. Nada) cells were cultured in Iscove's modified DME containing 5% fetal bovine serum (FBS). Cells were transiently transfected with 0.5 μg of plasmid vector using Trans IT Transfection reagent (Mirus) or with 1 μg of plasmid vector using linear polyethylenimine (25 kDa) (Polyscience, Inc.). For growth factor stimulation, COS-1 cells were starved under low serum conditions (0.05% FBS) for 24 h and restimulated with serum (5% FBS). […]
Confocal and Nomarski differential-interference-contrast images were obtained using a Fluoview FV500 confocal laser scanning microscope with a 40×1.00 NA oil and a 100×1.35 NA oil immersion objective (Olympus, Tokyo) and an LSM 510 confocal laser scanning microscope with a 63×1.40 NA oil immersion objective (Zeiss), as described. […] Emission signals were detected between 505 and 525 nm for fluorescein, at more than 560 nm for rhodamine and more than 610 nm for PI [44]. […] Fluorescence intensity plots of anti-histone H3K4me3, anti-ATF-2 pT69/71 and anti-HP1α antibody and PI staining (see FIGS. 18B, 19B, and 20B, respectively) were generated using Fluoview version 4.3 software (Olympus, Tokyo). […]

## [Na+].[Na+].[Na+].[O]=[V]([O-])([O-])[O-] [Na3VO4, sodium orthovanadate]
SYF cells, FIG. 49
  levels of chromatin hypo- and hypercondensation: much lower than those in Na3VO4-treated COS-1 cells; also recorded: modestly induced
SYF/c-Src-wt cells, FIGS. 48A and 49
  chromatin hypo- and hypercondensation: an increase
